One may read the EC50 as the concentration needed to bring the measured effect to its halfway point.

For 28 compounds, EC50 results are on record in patent US11046680B1, “Heteroaryl-substituted triazoles as APJ receptor agonists” (priority 2016, dated 2021).

This assay addresses human APJ receptor (Homo sapiens (Human), UniProt P35414). Briefly: biochemical. The assay is classed as biochemical. To be noted: [35S]GTPγS binding, CHO membranes expressing human APJ receptor; read-out: Activity hAPJ SPA EC50 IP. In short, it runs like this: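 GTPγS binding on membranes from CHO cells stably expressing FLAG-tagged human APJ, with optimized GDP, MgCl2 and NaCl; incubated 90 min at RT before imaging read-out.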
(In general: Binding of GTPγS marks nucleotide exchange on a G protein.)

human APJ receptor, sequence (P35414 whole entry): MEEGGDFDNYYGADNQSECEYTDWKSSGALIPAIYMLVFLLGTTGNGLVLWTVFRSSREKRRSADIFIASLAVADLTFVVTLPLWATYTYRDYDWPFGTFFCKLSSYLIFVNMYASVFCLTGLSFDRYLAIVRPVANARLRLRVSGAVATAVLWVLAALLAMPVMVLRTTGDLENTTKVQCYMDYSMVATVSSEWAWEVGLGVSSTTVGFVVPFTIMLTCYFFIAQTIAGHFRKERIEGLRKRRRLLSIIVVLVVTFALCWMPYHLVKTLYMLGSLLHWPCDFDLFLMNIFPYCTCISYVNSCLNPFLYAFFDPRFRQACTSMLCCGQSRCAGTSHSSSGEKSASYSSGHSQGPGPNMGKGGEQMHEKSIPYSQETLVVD

As to `COc1cnc([C@@H](C)[C@H](C)S(=O)(=O)Nc2nnc(-c3cnn4c3CCC4)n2-c2c(OC)cccc2OC)nc1` [Example 485.0, (2S,3R)-N-(5-(5,6-dihydro-4H-pyrrolo[1,2-b]pyrazol-3-yl)-4-(2,6-dimethoxyphenyl)-4H-1,2,4-triazol-3-yl)-3-(5-methoxypyrimidin-2-yl)butane-2-sulfonamide], the concentration giving a half-maximal response (EC50) is 0.3 nM. As for `COc1cnc([C@@H](C)[C@H](C)S(=O)(=O)Nc2nnc(-c3cnn4c3CCC4)n2-c2c(OC)cccc2OC)cn1` [Example 486.0, (2S,3R)-N-(5-(5,6-dihydro-4H-pyrrolo[1,2-b]pyrazo1-3-yl)-4-(2,6-dimethoxyphenyl)-4H-1,2,4-triazol-3-yl)-3-(5-methoxypyrazin-2-yl)butane-2-sulfonamide], the half-maximal effective concentration (EC50) amounted to 0.29 nM. Turning to `COc1cccc(OC)c1-n1c(NS(=O)(=O)[C@@H](C)[C@H](C)c2ncc(C)cn2)nnc1-c1cnn2c1CCC2` [Example 487.0, (2S,3R)-N-(5-(5,6-dihydro-4H-pyrrolo[1,2-b]pyrazol-3-yl)-4-(2,6-dimethoxyphenyl)-4H-1,2,4-triazol-3-yl)-3-(5-methylpyrimidin-2-yl)butane-2-sulfonamide], the concentration giving a half-maximal response (EC50) amounted to 0.62 nM. For the compound `COc1cccc(OC)c1-n1c(NS(=O)(=O)[C@@H](C)[C@H](OC)c2ncc(Cl)cn2)nnc1-c1cnn2c1CCC2` [Example 488.0, (1R,2S)-1-(5-chloropyrimidin-2-yl)-N-(5-(5,6-dihydro-4H-pyrrolo[1,2-b]pyrazol-3-yl)-4-(2,6-dimethoxyphenyl)-4H-1,2,4-triazol-3-yl)-1-methoxypropane-2-sulfonamide], the EC50 came out at 0.2 nM. As to `COCC1(n2c(NS(=O)(=O)[C@@H](C)[C@H](OC)c3ncc(Cl)cn3)nnc2-c2n[nH]c3c2CCC3)CCC1` [Example 489.0], the EC50 is 1.3 nM. With `COCC1(n2c(NS(=O)(=O)[C@@H](C)[C@H](OC)c3ncc(Cl)cn3)nnc2-c2n[nH]c3c2CCCC3)CC1` [Example 491.0, (1R,2S)-1-(5-chloropyrimidin-2-yl)-1-methoxy-N-(4-(1-(methoxymethyl)cyclopropyl)-5-(4,5,6,7-tetrahydro-1H-indazol-3-yl)-4H-1,2,4-triazol-3-yl)propane-2-sulfonamide], the EC50 was found to be 15 nM. On to `CO[C@H](c1ncc(Cl)cn1)[C@H](C)S(=O)(=O)Nc1nnc(-c2n[nH]c3c2CCC3)n1C1(C)CCC1` [Example 492.0, (1R,2S)-1-(5-chloropyrimidin-2-yl)-1-methoxy-N-(4-(1-methylcyclobutyl)-5-(1,4,5,6-tetrahydrocyclopenta[c]pyrazol-3-yl)-4H-1,2,4-triazol-3-yl)propane-2-sulfonamide], for which the EC50 turned out to be 34 nM. Take `COCC1(n2c(NS(=O)(=O)[C@@H](C)[C@H](OC)c3ncc(Cl)cn3)nnc2-c2n[nH]c3ccc(C)cc23)CC1` [Example 493.0, (1R,2S)-1-(5-chloropyrimidin-2-yl)-1-methoxy-N-(4-(1-(methoxymethyl)cyclopropyl)-5-(5-methyl-1H-indazol-3-yl)-4H-1,2,4-triazol-3-yl)propane-2-sulfonamide]: the half-maximal effective concentration (EC50) worked out at 43 nM. For the compound `COCC1(n2c(NS(=O)(=O)[C@@H](C)[C@H](OC)c3ncc(Cl)cn3)nnc2-c2n[nH]c3ccccc23)CC1` [Example 495.0, (1R,2S)-1-(5-chloro-2-pyrimidinyl)-N-(5-(1H-indazol-3-yl)-4-(1-(methoxymethyl)cyclopropyl)-4H-1,2,4-triazol-3-yl)-1-methoxy-2-propanesulfonamide], the concentration giving a half-maximal response (EC50) turned out to be 13 nM.

Regarding `COc1cccc(OC)c1-n1c(NS(=O)(=O)[C@@H](C)[C@H](OC)c2ncc(Cl)cn2)nnc1-c1cc(C)on1` [Example 496.0, (1R,2S)-1-(5-chloropyrimidin-2-yl)-N-(4-(2,6-dimethoxyphenyl)-5-(5-methylisoxazol-3-yl)-4H-1,2,4-triazol-3-yl)-1-methoxypropane-2-sulfonamide], the EC50 is 0.62 nM.

As for `COc1cccc(OC)c1-n1c(NS(=O)(=O)[C@@H](C)[C@@H](OC(C)C)c2cnc(C)cn2)nnc1-c1cc(C)on1` [Example 497.0, (1S,2S)-N-(4-(2,6-dimethoxyphenyl)-5-(5-methylisoxazol-3-yl)-4H-1,2,4-triazol-3-yl)-1-isopropoxy-1-(5-methylpyrazin-2-yl)propane-2-sulfonamide], the EC50 turned out to be 15 nM. Regarding `COc1cccc(OC)c1-n1c(NS(=O)(=O)[C@@H](C)[C@H](C)c2ncc(Cl)cn2)nnc1-c1cc(C)on1` [Example 498.0, (2S,3R)-3-(5-chloropyrimidin-2-yl)-N-(4-(2,6-dimethoxyphenyl)-5-(5-methylisoxazol-3-yl)-4H-1,2,4-triazol-3-yl)butane-2-sulfonamide], the half-maximal effective concentration (EC50) came to 0.44 nM. With `COc1cccc(OC)c1-n1c(NS(=O)(=O)[C@@H](C)[C@H](OC)c2ncc(Cl)cn2)nnc1-c1cnn(C)c1C(C)C` [Example 501.0, (1R,2S)-1-(5-chloropyrimidin-2-yl)-N-(4-(2,6-dimethoxyphenyl)-5-(5-isopropyl-1-methyl-1H-pyrazol-4-yl)-4H-1,2,4-triazol-3-yl)-1-methoxypropane-2-sulfonamide], the EC50 is 9.3 nM. For `COCC1(n2c(NS(=O)(=O)[C@@H](C)[C@H](OC)c3ncc(Cl)cn3)nnc2-c2noc3ccccc23)CC1` [Example 505.0, (1R,2S)-N-(5-(1,2-benzoxazol-3-yl)-4-(1-(methoxymethyl)cyclopropyl)-4H-1,2,4-triazol-3-yl)-1-(5-chloro-2-pyrimidinyl)-1-methoxy-2-propanesulfonamide], the 50% effective concentration (EC50) came to 8.5 nM. Regarding `CO[C@H](c1ncc(Cl)cn1)[C@H](C)S(=O)(=O)Nc1nnc(-c2noc3ccccc23)n1C1CC1` [Example 506.0, (1R,2S)-N-(5-(benzo[d]isoxazol-3-yl)-4-cyclopropyl-4H-1,2,4-triazol-3-yl)-1-(5-chloropyrimidin-2-yl)-1-methoxypropane-2-sulfonamide], the EC50 came out at 260 nM. As to `CO[C@H](c1ncc(Cl)cn1)[C@H](C)S(=O)(=O)Nc1nnc(-c2cnn3ccccc23)n1C1CC1` [Example 507.0, (1R,2S)-1-(5-chloropyrimidin-2-yl)-N-(4-cyclopropyl-5-(pyrazolo[1,5-a]pyridin-3-yl)-4H-1,2,4-triazol-3-yl)-1-methoxypropane-2-sulfonamide], the EC50 stood at 38 nM. Take `COCC1(n2c(NS(=O)(=O)[C@@H](C)[C@H](OC)c3ncc(Cl)cn3)nnc2-c2cnn3ccccc23)CCC1` [Example 508.0]: the concentration giving a half-maximal response (EC50) was 62 nM. With `COCC1(n2c(NS(=O)(=O)[C@@H](C)[C@H](OC)c3ncc(Cl)cn3)nnc2-c2cnn3ccccc23)CC1` [Example 509.0, (1R,2S)-1-(5-chloropyrimidin-2-yl)-1-methoxy-N-(4-(1-(methoxymethyl)cyclopropyl)-5-(pyrazolo[1,5-a]pyridin-3-yl)-4H-1,2,4-triazol-3-yl)propane-2-sulfonamide] the figure was 4.1 nM; with `CO[C@H](c1ncc(Cl)cn1)[C@H](C)S(=O)(=O)Nc1nnc(-c2noc3ccccc23)n1C(C)C` [Example 511.0, (1R,2S)-N-(5-(benzo[d]isoxazol-3-yl)-4-isopropyl-4H-1,2,4-triazol-3-yl)-1-(5-chloropyrimidin-2-yl)-1-methoxypropane-2-sulfonamide], 200 nM. In the case of `CO[C@H](c1ncc(Cl)cn1)[C@H](C)S(=O)(=O)Nc1nnc(-c2nn(C)c3c2CCCC3)n1C(C)C` [Example 512.0, (1R,2S)-1-(5-chloropyrimidin-2-yl)-N-(4-isopropyl-5-(1-methyl-4,5,6,7-tetrahydro-1H-indazol-3-yl)-4H-1,2,4-triazol-3-yl)-1-methoxypropane-2-sulfonamide], the EC50 is 130 nM. The value for `COCC1(n2c(NS(=O)(=O)[C@@H](C)[C@H](OC)c3ncc(Cl)cn3)nnc2-c2nn(C)c3c2CCCC3)CC1` [Example 513.0, (1R,2S)-1-(5-chloropyrimidin-2-yl)-1-methoxy-N-(4-(1-(methoxymethyl)cyclopropyl)-5-(1-methyl-4,5,6,7-tetrahydro-1H-indazol-3-yl)-4H-1,2,4-triazol-3-yl)propane-2-sulfonamide] was 3.1 nM; that for `CO[C@H](c1ncc(Cl)cn1)[C@H](C)S(=O)(=O)Nc1nnc(-c2nn(C)c3c2CCCC3)n1C1CC1` [Example 514.0, (1R,2S)-1-(5-chloropyrimidin-2-yl)-N-(4-cyclopropyl-5-(1-methyl-4,5,6,7-tetrahydro-1H-indazol-3-yl)-4H-1,2,4-triazol-3-yl)-1-methoxypropane-2-sulfonamide] was 19 nM; that for `COc1cccc(OC)c1-n1c(NS(=O)(=O)[C@@H](C)[C@H](OC)c2ncc(Cl)cn2)nnc1-c1noc(C)c1C` [Example 515.0, (1R,2S)-1-(5-chloropyrimidin-2-yl)-N-(4-(2,6-dimethoxyphenyl)-5-(4,5-dimethylisoxazol-3-yl)-4H-1,2,4-triazol-3-yl)-1-methoxypropane-2-sulfonamide] was 0.93 nM.

With `COc1cccc(OC)c1-n1c(NS(=O)(=O)[C@@H](C)[C@H](OC)c2ncc(C)cn2)nnc1-c1noc(C)c1C` [Example 516.0], the EC50 is 18 nM.

Turning to `COc1cccc(OC)c1-n1c(NS(=O)(=O)[C@@H](C)[C@@H](OC(C)C)c2ncc(C)cn2)nnc1-c1noc(C)c1C` [Example 517.0, (1S,2S)-N-(4-(2,6-dimethoxyphenyl)-5-(4,5-dimethylisoxazol-3-yl)-4H-1,2,4-triazol-3-yl)-1-isopropoxy-1-(5-methylpyrimidin-2-yl)propane-2-sulfonamide], the EC50 was 3 nM. `COCC1(n2c(NS(=O)(=O)[C@@H](C)[C@H](OC)c3ncc(Cl)cn3)nnc2-c2nn(C)c3c2CCCC3)CCC1` [Example 518.0]: the 50% effective concentration (EC50) came out at 92 nM. The value for `CCc1onc(-c2nnc(NS(=O)(=O)[C@@H](C)[C@H](OC)c3ncc(Cl)cn3)n2-c2c(OC)cccc2OC)c1C` [Example 519.0] was 0.32 nM; that for `COc1cccc(OC)c1-n1c(NS(=O)(=O)[C@@H](C)[C@H](OC)c2ncc(Cl)cn2)nnc1-c1c[nH]cn1` [Example 523.0, (1R,2S)-1-(5-chloropyrimidin-2-yl)-N-(4-(2,6-dimethoxyphenyl)-5-(1H-imidazol-4-yl)-4H-1,2,4-triazol-3-yl)-1-methoxypropane-2-sulfonamide] was 3.2 nM.
